System: Staphylococcus epidermitis
Assay: Bacterial growth inhibition screen in LB media (absorbance 595 nm), percent inhibition
Settings: S. epidermitis

SMILES	% Inhibition (concentration screened 10 uM) [%]	% Inhibition (concentration screened 100 uM) [%]
COC(=O)c1ccc2c(ccn2CCC[n+]2cccc(C(=O)OC)c2)c1 [Compound 171]	15.33	
O=C([O-])c1ccc[n+](CCCn2c(C(=O)O)cc3ccccc32)c1 [Compound 191]	46.32	
C[n+]1cccc(C(=O)OCCCCCCCCCc2cc3cc([N+](=O)[O-])ccc3[nH]2)c1 [Compound 281]	84.23	
c1ccc(Oc2ccc3[nH]c(CCCCC[n+]4ccccc4)cc3c2)cc1 [Compound 350]	7.59	
c1ccc2[nH]c(CCC[n+]3cccc4ccccc43)cc2c1 [Compound 390]	5.92	
c1ccc2[nH]c(CCCC[n+]3cccc4ccccc43)cc2c1 [Compound 391]	5.29	
FC(F)(F)c1ccc2cc(CCCCCCC[n+]3cccc4ccccc43)[nH]c2c1 [Compound 400]	5.50	
Fc1cc(F)c2[nH]c(CCCCCCC[n+]3cccc4ccccc43)cc2c1 [Compound 412]	7.73	
O=[N+]([O-])c1cc([N+](=O)[O-])c2[nH]c(CCCCC[n+]3cccc4ccccc43)cc2c1 [Compound 416]	2.09	
c1ccc(Oc2ccc3[nH]c(CCC[n+]4cccc5ccccc54)cc3c2)cc1 [Compound 456]	3.69	
c1ccc(Oc2ccc3[nH]c(CCCCCC[n+]4cccc5ccccc54)cc3c2)cc1 [Compound 459]	16.09	
FC(F)(F)c1ccc2[nH]c(CCCCCC[n+]3cccc4ccccc43)cc2c1 [Compound 471]	14.07	
CN(C)c1cccc(C(=O)OCCCCc2cc3cc(C(F)(F)F)ccc3[nH]2)c1 [Compound 606]		9.17
CN(C)c1ccc(C(=O)OCCCCc2cc3cc(C(F)(F)F)ccc3[nH]2)cc1 [Compound 609]		7.35
CN(C)c1ccc(C(=O)OCCCCCCCc2cc3cc(C(F)(F)F)ccc3[nH]2)cc1 [Compound 610]	33.51	
O=C(OCCCCc1cc2cc(C(F)(F)F)ccc2[nH]1)c1ccccc1-c1ccccc1 [Compound 612]		10.24
O=C(OCCCCCCCc1cc2cc(C(F)(F)F)ccc2[nH]1)c1ccccc1-c1ccccc1 [Compound 613]	1.36	
CN(C)c1cccc(C(=O)OCCCCc2cc3cc(Oc4ccccc4)ccc3[nH]2)c1 [Compound 615]		11.81
CN(C)c1cccc(C(=O)OCCCCCCCc2cc3cc(Oc4ccccc4)ccc3[nH]2)c1 [Compound 616]	5.59	
CN(C)c1ccc(C(=O)OCCCCc2cc3cc(Oc4ccccc4)ccc3[nH]2)cc1 [Compound 618]		11.06
O=C(OCCCCc1cc2cc(Oc3ccccc3)ccc2[nH]1)c1ccccc1-c1ccccc1 [Compound 621]		11.75
O=C(OCCCCCCCc1cc2cc(Oc3ccccc3)ccc2[nH]1)c1ccccc1-c1ccccc1 [Compound 622]	7.97	
O=C(OCCCCCCCCc1cc2cc(Oc3ccccc3)ccc2[nH]1)c1ccccc1-c1ccccc1 [Compound 623]		34.17
CC(C)c1ccc2[nH]c(CCCCOC(=O)c3cccc(N(C)C)c3)cc2c1 [Compound 624]		19.16
CC(C)c1ccc2[nH]c(CCCCCCCOC(=O)c3cccc(N(C)C)c3)cc2c1 [Compound 625]	7.77	
CC(C)c1ccc2[nH]c(CCCCCCCCOC(=O)c3cccc(N(C)C)c3)cc2c1 [Compound 626]		14.26

SMILES	% Inhibition (concentration screened 10 uM) [%]	% Inhibition (concentration screened 100 uM) [%]
CC(C)c1ccc2[nH]c(CCCCCCCCOC(=O)c3ccc(N(C)C)cc3)cc2c1 [Compound 629]		6.66
CC(C)c1ccc2[nH]c(CCCCCCCOC(=O)c3ccccc3-c3ccccc3)cc2c1 [Compound 631]	12.19	
CC(C)c1ccc2[nH]c(CCCCCCCCOC(=O)c3ccccc3-c3ccccc3)cc2c1 [Compound 632]		22.42
CC(=O)c1ccc2[nH]c(CCCCOC(=O)c3cccc(N(C)C)c3)cc2c1 [Compound 633]		5.53
CC(=O)c1ccc2[nH]c(CCCCCCCOC(=O)c3cccc(N(C)C)c3)cc2c1 [Compound 634]	10.08	
CC(=O)c1ccc2[nH]c(CCCCCCCCOC(=O)c3cccc(N(C)C)c3)cc2c1 [Compound 635]		7.47
CC(=O)c1ccc2[nH]c(CCCCOC(=O)c3ccccc3-c3ccccc3)cc2c1 [Compound 639]		7.41
CC(=O)c1ccc2[nH]c(CCCCCCCCOC(=O)c3ccccc3-c3ccccc3)cc2c1 [Compound 641]		8.10
CN(C)c1cccc(C(=O)OCCCCc2cc3cc(C(=O)c4ccccc4)ccc3[nH]2)c1 [Compound 642]		8.86
CN(C)c1cccc(C(=O)OCCCCCCCc2cc3cc(C(=O)c4ccccc4)ccc3[nH]2)c1 [Compound 643]	15.46	
CN(C)c1ccc(C(=O)OCCCCCCCc2cc3cc(C(=O)c4ccccc4)ccc3[nH]2)cc1 [Compound 646]	1.09	
CN(C)c1ccc(C(=O)OCCCCCCCCc2cc3cc(C(=O)c4ccccc4)ccc3[nH]2)cc1 [Compound 647]		13.38
O=C(c1ccccc1)c1ccc2[nH]c(CCCCCCCCOC(=O)c3ccccc3-c3ccccc3)cc2c1 [Compound 650]		7.73
O=C(OCCCCc1cc2cc(C(F)(F)F)ccc2[nH]1)C(c1ccccc1)c1ccccc1 [Compound 651]		13.51
O=C(OCCCCCCCc1cc2cc(C(F)(F)F)ccc2[nH]1)C(c1ccccc1)c1ccccc1 [Compound 652]	2.52	
O=C(OCCCCCCCc1cc2cc(C(F)(F)F)ccc2[nH]1)c1cccnc1 [Compound 655]	11.51	
O=C(OCCCCCCCCc1cc2cc(C(F)(F)F)ccc2[nH]1)c1cccnc1 [Compound 656]	2.59	
O=C(OCCCCc1cc2cc(Oc3ccccc3)ccc2[nH]1)C(c1ccccc1)c1ccccc1 [Compound 657]		37.12
O=C(OCCCCCCCc1cc2cc(Oc3ccccc3)ccc2[nH]1)C(c1ccccc1)c1ccccc1 [Compound 658]	1.43	
O=C(OCCCCCCCc1cc2cc(Oc3ccccc3)ccc2[nH]1)c1cccnc1 [Compound 661]	39.31	
CC(C)c1ccc2[nH]c(CCCCCCCOC(=O)C(c3ccccc3)c3ccccc3)cc2c1 [Compound 664]	3.88	
CC(C)c1ccc2[nH]c(CCCCCCCCOC(=O)C(c3ccccc3)c3ccccc3)cc2c1 [Compound 665]		12.75
CC(C)c1ccc2[nH]c(CCCCCCCCOC(=O)c3cccnc3)cc2c1 [Compound 668]	3.07	
CC(=O)c1ccc2[nH]c(CCCCOC(=O)C(c3ccccc3)c3ccccc3)cc2c1 [Compound 669]		11.24
CC(=O)c1ccc2[nH]c(CCCCCCCCOC(=O)C(c3ccccc3)c3ccccc3)cc2c1 [Compound 671]		5.72
CC(=O)c1ccc2[nH]c(CCCCCCCCOC(=O)c3cccnc3)cc2c1 [Compound 674]	7.70	

SMILES	% Inhibition (concentration screened 10 uM) [%]	% Inhibition (concentration screened 100 uM) [%]
O=C(c1ccccc1)c1ccc2[nH]c(CCCCOC(=O)C(c3ccccc3)c3ccccc3)cc2c1 [Compound 675]		11.37
O=C(OCCCCCCCCc1cc2cc(C(=O)c3ccccc3)ccc2[nH]1)c1cccnc1 [Compound 680]	22.48	
O=C(OCCCCc1cc2ccc(C(F)(F)F)cc2[nH]1)c1cccnc1 [Compound 681]	4.22	
O=C(OCCCCCCCCc1cc2ccc(C(F)(F)F)cc2[nH]1)c1cccnc1 [Compound 683]	9.26	
O=C(OCCCCc1cc2cc(Oc3ccccc3)ccc2[nH]1)c1cccnc1 [Compound 684]	10.83	
O=C(OCCCCCCCCc1cc2cc(Oc3ccccc3)ccc2[nH]1)c1cccnc1 [Compound 686]	22.14	
CC(C)c1ccc2[nH]c(CCCCOC(=O)c3cccnc3)cc2c1 [Compound 687]	14.44	
CC(=O)c1ccc2[nH]c(CCCCOC(=O)c3cccnc3)cc2c1 [Compound 690]	10.01	
O=C(OCCCCc1cc2cc(C(=O)c3ccccc3)ccc2[nH]1)c1cccnc1 [Compound 693]	14.37	
O=C(OCCCCCCCc1cc2cc(C(=O)c3ccccc3)ccc2[nH]1)c1cccnc1 [Compound 694]	2.59	
O=C(OCCCCCCCCc1cc2cc(Oc3ccccc3)ccc2[nH]1)c1ccncc1 [Compound 701]	3.88	
CC(C)c1ccc2[nH]c(CCCCCCCOC(=O)c3ccncc3)cc2c1 [Compound 703]	4.29	
CC(C)c1ccc2[nH]c(CCCCCCCCOC(=O)c3ccncc3)cc2c1 [Compound 704]	19.07	
CC(=O)c1ccc2[nH]c(CCCCCCCOC(=O)c3ccncc3)cc2c1 [Compound 706]	6.68	
CC(=O)c1ccc2[nH]c(CCCCCCCCOC(=O)c3ccncc3)cc2c1 [Compound 707]	3.61	
O=C(OCCCCCCCc1cc2cc(C(=O)c3ccccc3)ccc2[nH]1)c1ccncc1 [Compound 709]	12.94	
O=C(OCCCCCCCCc1cc2cc(C(=O)c3ccccc3)ccc2[nH]1)c1ccncc1 [Compound 710]	6.95	
O=C(OCCCCCCCCc1cc2cc([N+](=O)[O-])ccc2[nH]1)C(c1ccccc1)c1ccccc1 [Compound 726]	16.76	
CN(C)c1ccc(C(=O)OCCCCCCCCc2cc3cc([N+](=O)[O-])ccc3[nH]2)cc1 [Compound 727]	42.23	
O=C(CCc1cccnc1)OCCCCCCCCc1cc2cc([N+](=O)[O-])ccc2[nH]1 [Compound 728]	13.28	
O=C(OCCCCCCCCc1cc2cc([N+](=O)[O-])ccc2[nH]1)c1ccccc1-c1ccccc1 [Compound 729]	8.24	
COc1ccc2c(ccn2CCCCOC(=O)c2ccc([N+](C)(C)C)cc2)c1 [Compound 780]	4.78	
C[N+](C)(C)c1cccc(C(=O)OCCCCn2ccc3cc(OCc4ccccc4)ccc32)c1 [Compound 805]	50.87	
COc1ccc2c(ccn2CCCCOC(=O)c2cc3ccccc3[n+](C)c2)c1 [Compound 820]	65.74	
C[n+]1cc(C(=O)OCCCCn2ccc3cc(OCc4ccccc4)ccc32)cc2ccccc21 [Compound 825]	83.13	
